≈ marks a conversion by molar mass, not a printed value.
Assays:
[1] = system: N. gonorrhoeae clinical isolates; experiment: MIC, agar dilution (CLSI); type: cell-based, Neisseria gonorrhoeae
[2] = system: N. gonorrhoeae (ATCC 700825); experiment: Intravaginal infection model, ovariectomized BALB/c mice, strain ATCC 700825; type: in vivo, mouse (BALB/c); conditions: 26 h, IP 48 mg/kg QD, relative to vehicle or baseline
[3] = system: Neisseria gonorrhoeae strain H041; experiment: Estradiol-treated mouse model of cervico-vaginal infection, strain H041; type: in vivo, mouse (BALB/c); conditions: 48 mg/kg, 5 QD, IP; P = 0.007
S. aureus VRSA, VRS-2 = experiment: Neutropenic murine thigh infection model; type: in vivo, mouse (ICR); conditions: PO 50 mg/kg BID, 26 h after infection
VISA = experiment: MIC, in vitro susceptibility testing (CLSI); type: cell-based, Staphylococcus aureus; conditions: Staphylococcus aureus, VISA
VRSA = experiment: MIC, in vitro susceptibility testing (CLSI); type: cell-based, Staphylococcus aureus; conditions: Staphylococcus aureus, VRSA

## CC1(C)S[C@@H]2[C@H](NC(=O)Cc3ccccc3)C(=O)N2[C@H]1C(=O)O [Pen, penicillin]
[1]; 96 clinical isolates
  MIC50: 1 µg/mL (≈ 2.99 µM)
  MIC90: 2 µg/mL (≈ 5.98 µM)
  MIC range: <0.008 to 4 µg/mL
[1]; strain CDC1 (GCREF2012 016)
  MIC: 1 µg/mL (≈ 2.99 µM)
[1]; strain CDC2 (GCREF2012 045)
  MIC: 1 µg/mL (≈ 2.99 µM)
[1]; strain CDC3 (GCREF2013 013)
  MIC: 1 µg/mL (≈ 2.99 µM)
[1]; strain CDC4 (GCREF2013 030)
  MIC: 1 µg/mL (≈ 2.99 µM)
[1]; strain CDC5 (GCREF2012 001)
  MIC: 1 µg/mL (≈ 2.99 µM)
[1]; strain CDC6 (GCREF2012 002)
  MIC: 1 µg/mL (≈ 2.99 µM)
[1]; strain CDC8 (GCREF2012 004)
  MIC: 0.25 µg/mL (≈ 0.748 µM)
[1]; strain CDC9 (GCREF2012 005)
  MIC: 1 µg/mL (≈ 2.99 µM)
[1]; strain CDC10 (GCREF2012 006)
  MIC: 1 µg/mL (≈ 2.99 µM)
[1]; strain CDC11 (GCREF2012 007)
  MIC: 1 µg/mL (≈ 2.99 µM)
[1]; strain CDC12 (GCREF2012 008)
  MIC: 1 µg/mL (≈ 2.99 µM)
[1]; strain CDC13 (GCREF2012 009)
  MIC: 1 µg/mL (≈ 2.99 µM)
[1]; strain CDC14 (GCREF2012 010)
  MIC: 1 µg/mL (≈ 2.99 µM)
[1]; strain CDC15 (GCREF2012 011)
  MIC: 0.125 µg/mL (≈ 0.374 µM)
[1]; strain CDC16 (GCREF2012 012)
  MIC: 2 µg/mL (≈ 5.98 µM)
[1]; strain CDC18 (GCREF2012 014)
  MIC: 1 µg/mL (≈ 2.99 µM)
[1]; strain CDC19 (GCREF2012 015)
  MIC: 0.25 µg/mL (≈ 0.748 µM)
[1]; strain CDC20 (GCREF2012 017)
  MIC: 0.125 µg/mL (≈ 0.374 µM)
[1]; strain CDC21 (GCREF2012 018)
  MIC: 1 µg/mL (≈ 2.99 µM)
[1]; strain CDC22 (GCREF2012 019)
  MIC: 0.25 µg/mL (≈ 0.748 µM)
[1]; strain CDC23 (GCREF2012 020)
  MIC: 1 µg/mL (≈ 2.99 µM)
[1]; strain CDC24 (GCREF2012 021)
  MIC: 1 µg/mL (≈ 2.99 µM)
[1]; strain CDC25 (GCREF2012 022)
  MIC: 2 µg/mL (≈ 5.98 µM)
[1]; strain CDC26 (GCREF2012 023)
  MIC: 0.25 µg/mL (≈ 0.748 µM)
[1]; strain CDC27 (GCREF2012 024)
  MIC: 1 µg/mL (≈ 2.99 µM)
[1]; strain CDC28 (GCREF2012 025)
  MIC: 1 µg/mL (≈ 2.99 µM)
[1]; strain CDC29 (GCREF2012 026)
  MIC: 1 µg/mL (≈ 2.99 µM)
[1]; strain CDC30 (GCREF2012 027)
  MIC: 1 µg/mL (≈ 2.99 µM)
[1]; strain CDC31 (GCREF2012 028)
  MIC: 2 µg/mL (≈ 5.98 µM)
[1]; strain CDC32 (GCREF2012 029)
  MIC: 1 µg/mL (≈ 2.99 µM)
[1]; strain CDC33 (GCREF2012 030)
  MIC: 1 µg/mL (≈ 2.99 µM)
[1]; strain CDC34 (GCREF2012 031)
  MIC: 1 µg/mL (≈ 2.99 µM)
[1]; strain CDC35 (GCREF2012 032)
  MIC: 2 µg/mL (≈ 5.98 µM)
[1]; strain CDC36 (GCREF2012 033)
  MIC: 0.25 µg/mL (≈ 0.748 µM)
[1]; strain CDC37 (GCREF2012 034)
  MIC: 1 µg/mL (≈ 2.99 µM)
[1]; strain CDC38 (GCREF2012 035)
  MIC: 1 µg/mL (≈ 2.99 µM)
[1]; strain CDC39 (GCREF2012 036)
  MIC: 2 µg/mL (≈ 5.98 µM)
[1]; strain CDC40 (GCREF2012 037)
  MIC: 1 µg/mL (≈ 2.99 µM)
[1]; strain CDC41 (GCREF2012 038)
  MIC: 2 µg/mL (≈ 5.98 µM)
[1]; strain CDC42 (GCREF2012 039)
  MIC: 2 µg/mL (≈ 5.98 µM)
[1]; strain CDC43 (GCREF2012 040)
  MIC: 2 µg/mL (≈ 5.98 µM)
[1]; strain CDC45 (GCREF2012 042)
  MIC: 2 µg/mL (≈ 5.98 µM)
[1]; strain CDC46 (GCREF2012 043)
  MIC: 1 µg/mL (≈ 2.99 µM)
[1]; strain CDC47 (GCREF2012 044)
  MIC: 1 µg/mL (≈ 2.99 µM)
[1]; strain CDC48 (GCREF2012 046)
  MIC: 1 µg/mL (≈ 2.99 µM)
[1]; strain CDC49 (GCREF2012 047)
  MIC: 2 µg/mL (≈ 5.98 µM)
[1]; strain CDC50 (GCREF2012 048)
  MIC: 2 µg/mL (≈ 5.98 µM)
[1]; strain CDC51 (GCREF2012 049)
  MIC: 2 µg/mL (≈ 5.98 µM)
[1]; strain CDC52 (GCREF2012 050)
  MIC: 2 µg/mL (≈ 5.98 µM)
[1]; strain CDC53 (GCREF2012 051)
  MIC: 2 µg/mL (≈ 5.98 µM)
[1]; strain CDC54 (GCREF2012 052)
  MIC: 2 µg/mL (≈ 5.98 µM)
[1]; strain CDC55 (GCREF2013 001)
  MIC: 1 µg/mL (≈ 2.99 µM)
[1]; strain CDC56 (GCREF2013 002)
  MIC: 1 µg/mL (≈ 2.99 µM)
[1]; strain CDC57 (GCREF2013 003)
  MIC: 1 µg/mL (≈ 2.99 µM)
[1]; strain CDC58 (GCREF2013 004)
  MIC: 2 µg/mL (≈ 5.98 µM)
[1]; strain CDC59 (GCREF2013 044)
  MIC: 2 µg/mL (≈ 5.98 µM)
[1]; strain CDC60 (GCREF2013 005)
  MIC: 4 µg/mL (≈ 12 µM)
[1]; strain CDC61 (GCREF2013 006)
  MIC: 4 µg/mL (≈ 12 µM)
[1]; strain CDC62 (GCREF2013 007)
  MIC: 0.25 µg/mL (≈ 0.748 µM)
[1]; strain CDC64 (GCREF2013 009)
  MIC: 0.5 µg/mL (≈ 1.5 µM)
[1]; strain CDC65 (GCREF2013 010)
  MIC: 0.5 µg/mL (≈ 1.5 µM)
[1]; strain CDC66 (GCREF2013 011)
  MIC: 0.25 µg/mL (≈ 0.748 µM)
[1]; strain CDC67 (GCREF2013 014)
  MIC: 0.5 µg/mL (≈ 1.5 µM)
[1]; strain CDC68 (GCREF2013 016)
  MIC: 1 µg/mL (≈ 2.99 µM)
[1]; strain CDC69 (GCREF2013 017)
  MIC: 1 µg/mL (≈ 2.99 µM)
[1]; strain CDC70 (GCREF2013 018)
  MIC: 2 µg/mL (≈ 5.98 µM)
[1]; strain CDC71 (GCREF2013 019)
  MIC: 0.25 µg/mL (≈ 0.748 µM)
[1]; strain CDC72 (GCREF2013 020)
  MIC: 2 µg/mL (≈ 5.98 µM)
[1]; strain CDC73 (GCREF2013 021)
  MIC: 0.5 µg/mL (≈ 1.5 µM)
[1]; strain CDC74 (GCREF2013 022)
  MIC: 0.25 µg/mL (≈ 0.748 µM)
[1]; strain CDC75 (GCREF2013 023)
  MIC: 0.5 µg/mL (≈ 1.5 µM)
[1]; strain CDC76 (GCREF2013 024)
  MIC: 0.5 µg/mL (≈ 1.5 µM)
[1]; strain CDC77 (GCREF2013 025)
  MIC: 0.125 µg/mL (≈ 0.374 µM)
[1]; strain CDC78 (GCREF2013 026)
  MIC: 0.5 µg/mL (≈ 1.5 µM)
[1]; strain CDC79 (GCREF2013 027)
  MIC: 1 µg/mL (≈ 2.99 µM)
[1]; strain CDC80 (GCREF2013 028)
  MIC: 2 µg/mL (≈ 5.98 µM)
[1]; strain CDC81 (GCREF2013 029)
  MIC: 2 µg/mL (≈ 5.98 µM)
[1]; strain CDC82 (GCREF2013 031)
  MIC: 1 µg/mL (≈ 2.99 µM)
[1]; strain CDC83 (GCREF2013 032)
  MIC: 0.25 µg/mL (≈ 0.748 µM)
[1]; strain CDC84 (GCREF2013 033)
  MIC: 0.25 µg/mL (≈ 0.748 µM)
[1]; strain CDC87 (GCREF2013 036)
  MIC: 2 µg/mL (≈ 5.98 µM)
[1]; strain CDC88 (GCREF2013 037)
  MIC: 2 µg/mL (≈ 5.98 µM)
[1]; strain CDC89 (GCREF2013 038)
  MIC: 1 µg/mL (≈ 2.99 µM)
[1]; strain CDC90 (GCREF2013 039)
  MIC: 2 µg/mL (≈ 5.98 µM)
[1]; strain CDC91 (GCREF2013 040)
  MIC: 2 µg/mL (≈ 5.98 µM)
[1]; strain CDC92 (GCREF2013 041)
  MIC: 2 µg/mL (≈ 5.98 µM)
[1]; strain CDC93 (GCREF2013 042)
  MIC: 1 µg/mL (≈ 2.99 µM)
[1]; strain CDC94 (GCREF2013 043)
  MIC: 0.25 µg/mL (≈ 0.748 µM)
[1]; strain CDC95 (GCREF2013 045)
  MIC: 2 µg/mL (≈ 5.98 µM)
[1]; strain CDC96 (GCREF2013 046)
  MIC: 1 µg/mL (≈ 2.99 µM)
[1]; strain CDC97 (GCREF2013 047)
  MIC: 1 µg/mL (≈ 2.99 µM)
[1]; strain CDC98 (GCREF2013 048)
  MIC: 0.25 µg/mL (≈ 0.748 µM)
[1]; strain CDC99 (GCREF2013 012)
  MIC: 0.25 µg/mL (≈ 0.748 µM)
[1]; strain CDC100 (GCREF2013 015)
  MIC: 1 µg/mL (≈ 2.99 µM)

## CNC(C)C1CCC(N)C(OC2C(N)CC(N)C(OC3OCC(C)(O)C(NC)C3O)C2O)O1 (stereo not shown) [GEN, gentamicin]
[2]
  reduction in the bacterial counts: No significant reduction in the bacterial counts
[3]
  average CFU per mL of vaginal swab suspension over time: significantly different than the vehicle control group

## CC(=O)NC[C@H]1CN(c2ccc(N3CCOCC3)c(F)c2)C(=O)O1 [linezolid]
S. aureus VRSA, VRS-2
  bacterial count reduction in thigh: 3.41 log10

## CO[C@H]1/C=C/O[C@@]2(C)Oc3c(C)c(O)c4c(O)c(c(/C=N/N5CCN(C)CC5)c(O)c4c3C2=O)NC(=O)/C(C)=C\C=C\[C@H](C)[C@H](O)[C@@H](C)[C@@H](O)[C@@H](C)[C@H](OC(C)=O)[C@@H]1C [Rif, rifampicin]
VISA; strain 2 11 43
  MIC: < 0.078 µg/mL
VISA; strain 2 11 56
  MIC: > 10 µg/mL
VISA; strain 2 11 57
  MIC: < 0.078 µg/mL
VISA; strain 2 11 61
  MIC: < 0.078 µg/mL
VISA; strain 2 11 71
  MIC: > 10 µg/mL
VISA; strain 2 11 78
  MIC: < 0.078 µg/mL
VISA; strain 2 11 86
  MIC: > 10 µg/mL
VISA; strain 2 13 52
  MIC: > 10 µg/mL
VRSA; strain 2 25 23
  MIC: < 0.078 µg/mL
VRSA; strain 2 25 24
  MIC: < 0.078 µg/mL
VRSA; strain 2 25 25
  MIC: < 0.078 µg/mL
VRSA; strain 2 25 26
  MIC: < 0.078 µg/mL
VRSA; strain 2 25 27
  MIC: < 0.078 µg/mL
VRSA; strain 2 25 28
  MIC: < 0.078 µg/mL
VRSA; strain VRS2 (VRS-2)
  MIC: > 10 µg/mL

— article PMC9487510, “A Novel Oral GyrB/ParE Dual Binding Inhibitor Effective against Multidrug-Resistant Neisseria gonorrhoeae and Other High-Threat Pathogens” (Antimicrobial Agents and Chemotherapy, 2022)
